The experiment has as its system CD2F1 mice, L1210 leukemia ip, survival T/C. Briefly: NCI In Vivo Anticancer Drug Screen. Data for tumor model L1210 Leukemia (intraperitoneal) in CD2F1 (CDF1) mice. Particulars: higher = longer survival. In short, it runs like this: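 Tumor-bearing mice (transplanted tumor) were split into treated and vehicle control groups, and the measured endpoint of each treated group was divided by that of its vehicle controls.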

[1] abbreviates: endpoint: mean survival time, dose: 100.0 mg/kg/injection, schedule: Q01DX009 (ip), vehicle: saline with Tween-80.
Where [2] appears, read: endpoint: mean survival time, dose: 200.0 mg/kg/injection, schedule: Q01DX009 (ip), vehicle: saline with Tween-80.
The mark [3] stands for this setting: endpoint: mean survival time, dose: 400.0 mg/kg/injection, schedule: Q01DX009 (ip), vehicle: saline with Tween-80.
Setting [4] is: endpoint: mean survival time, dose: 100.0 mg/kg/injection, schedule: Q04DX003 (ip), vehicle: saline with Tween-80.
Where [5] appears, read: endpoint: mean survival time, dose: 200.0 mg/kg/injection, schedule: Q04DX003 (ip), vehicle: saline with Tween-80.
Where [6] appears, read: endpoint: mean survival time, dose: 400.0 mg/kg/injection, schedule: Q04DX003 (ip), vehicle: saline with Tween-80.
[7] abbreviates: endpoint: mean survival time, dose: 75.0 mg/kg/injection, schedule: Q01DX001 (ip), vehicle: saline.
Setting [8] is: endpoint: mean survival time, dose: 150.0 mg/kg/injection, schedule: Q01DX001 (ip), vehicle: saline.
The mark [9] stands for this setting: endpoint: mean survival time, dose: 12.5 mg/kg/injection, schedule: Q01DX009 (ip), vehicle: water.
The mark [10] stands for this setting: endpoint: mean survival time, dose: 25.0 mg/kg/injection, schedule: Q01DX009 (ip), vehicle: water.
Where [11] appears, read: endpoint: mean survival time, dose: 50.0 mg/kg/injection, schedule: Q01DX009 (ip), vehicle: water.
[12] abbreviates: endpoint: mean survival time, dose: 100.0 mg/kg/injection, schedule: Q01DX009 (ip), vehicle: water.
[13] abbreviates: endpoint: mean survival time, dose: 200.0 mg/kg/injection, schedule: Q01DX009 (ip), vehicle: water.

Inconclusive results and toxic doses are left out.

Consider `Cc1cc2n[se]nc2cc1C`, for which the T/C by setting is: (endpoint: median survival time, dose: 3.12 mg/kg/injection, schedule: Q01DX009 (ip), vehicle: Klucel (hydroxypropylcellulose) (HPC)) 94 % of control; (endpoint: median survival time, dose: 6.25 mg/kg/injection, schedule: Q01DX009 (ip), vehicle: Klucel (hydroxypropylcellulose) (HPC)) 95 % of control; (endpoint: median survival time, dose: 12.5 mg/kg/injection, schedule: Q01DX009 (ip), vehicle: Klucel (hydroxypropylcellulose) (HPC)) 98 % of control; (endpoint: median survival time, dose: 25.0 mg/kg/injection, schedule: Q01DX009 (ip), vehicle: Klucel (hydroxypropylcellulose) (HPC)) 101 % of control.
On to `COC(=O)CCCCC(C)=O`, for which the T/C was 101 % of control under setting [1]; 98 % of control (endpoint: mean survival time, dose: 100.0 mg/kg/injection, schedule: Q04DX003 (ip), vehicle: saline sonified); 101 % of control under setting [2]; 98 % of control (endpoint: mean survival time, dose: 200.0 mg/kg/injection, schedule: Q04DX003 (ip), vehicle: saline sonified); 98 % of control under setting [3]; 102 % of control (endpoint: mean survival time, dose: 400.0 mg/kg/injection, schedule: Q04DX003 (ip), vehicle: saline sonified).
As to `O=C(O)C1(C(=O)O)CC2(CCC2)C1`, the T/C is 100 % of control (endpoint: mean survival time, dose: 100.0 mg/kg/injection, schedule: Q01DX001 (ip), vehicle: saline); 100 % of control (endpoint: mean survival time, dose: 200.0 mg/kg/injection, schedule: Q01DX001 (ip), vehicle: saline); 100 % of control (endpoint: mean survival time, dose: 400.0 mg/kg/injection, schedule: Q01DX001 (ip), vehicle: saline).
For the compound `O=C1Nc2ccc([N+](=O)[O-])c3c([N+](=O)[O-])ccc1c23`, the T/C runs as follows: under setting [4], 98 % of control; under setting [5], 97 % of control; under setting [6], 102 % of control.
`O=NN1CCCCCC1=O`: the T/C reads like this: under setting [7], 108 % of control; under setting [8], 110 % of control; (endpoint: mean survival time, dose: 300.0 mg/kg/injection, schedule: Q01DX001 (ip), vehicle: saline) 120 % of control.
On to `O=C(NCCI)NC1C(O)OC(CO)C(O)C1O` (configuration not stated), for which the T/C was 93 % of control under setting [9]; 92 % of control under setting [10]; 93 % of control under setting [11]; 95 % of control under setting [12]; 89 % of control under setting [13].
Regarding `N#CN=[N+]([O-])c1ccc(C(=O)O)cc1`, the T/C runs as follows: (endpoint: mean survival time, dose: 1.87 mg/kg/injection, schedule: Q01DX009 (ip), vehicle: Klucel (hydroxypropylcellulose) (HPC)) 106 % of control; (endpoint: mean survival time, dose: 3.75 mg/kg/injection, schedule: Q01DX009 (ip), vehicle: Klucel (hydroxypropylcellulose) (HPC)) 95 % of control; (endpoint: mean survival time, dose: 7.5 mg/kg/injection, schedule: Q01DX009 (ip), vehicle: Klucel (hydroxypropylcellulose) (HPC)) 95 % of control; (endpoint: mean survival time, dose: 15.0 mg/kg/injection, schedule: Q01DX009 (ip), vehicle: Klucel (hydroxypropylcellulose) (HPC)) 96 % of control; (endpoint: mean survival time, dose: 30.0 mg/kg/injection, schedule: Q01DX009 (ip), vehicle: Klucel (hydroxypropylcellulose) (HPC)) 98 % of control; (endpoint: mean survival time, dose: 60.0 mg/kg/injection, schedule: Q01DX009 (ip), vehicle: Klucel (hydroxypropylcellulose) (HPC)) 106 % of control. The T/C was 101 % of control (endpoint: median survival time, dose: 1.87 mg/kg/injection, schedule: Q01DX009 (ip), vehicle: Klucel (hydroxypropylcellulose) (HPC)); 95 % of control (endpoint: median survival time, dose: 3.75 mg/kg/injection, schedule: Q01DX009 (ip), vehicle: Klucel (hydroxypropylcellulose) (HPC)); 95 % of control (endpoint: median survival time, dose: 7.5 mg/kg/injection, schedule: Q01DX009 (ip), vehicle: Klucel (hydroxypropylcellulose) (HPC)); 109 % of control (endpoint: median survival time, dose: 15.0 mg/kg/injection, schedule: Q01DX009 (ip), vehicle: Klucel (hydroxypropylcellulose) (HPC)); 93 % of control (endpoint: median survival time, dose: 30.0 mg/kg/injection, schedule: Q01DX009 (ip), vehicle: Klucel (hydroxypropylcellulose) (HPC)).
With `O=[N+]([O-])c1cccc(S(=O)(=O)Nc2ccccc2Cl)c1`, the T/C was 97 % of control under setting [1]; 96 % of control under setting [4]; 92 % of control under setting [2]; 96 % of control under setting [5]; 95 % of control under setting [3]; 95 % of control under setting [6].
`CCCCCCCCCCCCOc1ccc(F)cc1C`: the T/C was 93 % of control (endpoint: mean survival time, dose: 100.0 mg/kg/injection, schedule: Q04DX002 (ip), vehicle: saline with Tween-80); 93 % of control (endpoint: mean survival time, dose: 200.0 mg/kg/injection, schedule: Q04DX002 (ip), vehicle: saline with Tween-80); 96 % of control (endpoint: mean survival time, dose: 400.0 mg/kg/injection, schedule: Q04DX002 (ip), vehicle: saline with Tween-80).
`Cc1c(-c2ccc(-c3ccccc3F)cc2)nc2ccc(F)cc2c1C(=O)O`: the T/C reads like this: (endpoint: median survival time, dose: 5.2 mg/kg/injection, schedule: Q01DX009 (ip), vehicle: water) 153 % of control; (endpoint: median survival time, dose: 6.25 mg/kg/injection, schedule: Q01DX009 (ip), vehicle: water) 165 % of control; (endpoint: median survival time, dose: 8.6 mg/kg/injection, schedule: Q01DX009 (ip), vehicle: water) 166 % of control; (endpoint: median survival time, dose: 12.5 mg/kg/injection, schedule: Q01DX009 (ip), vehicle: water) 168 % of control; (endpoint: median survival time, dose: 14.4 mg/kg/injection, schedule: Q01DX009 (ip), vehicle: water) 171 % of control; (endpoint: median survival time, dose: 24.0 mg/kg/injection, schedule: Q01DX009 (ip), vehicle: water) 172 % of control. Also, the T/C by setting is: (endpoint: median survival time, dose: 25.0 mg/kg/injection, schedule: Q01DX009 (ip), vehicle: water) 179 % of control; (endpoint: median survival time, dose: 40.0 mg/kg/injection, schedule: Q01DX009 (ip), vehicle: water) 175 % of control; (endpoint: median survival time, dose: 50.0 mg/kg/injection, schedule: Q01DX009 (ip), vehicle: water) 108 % of control; (endpoint: median survival time, dose: 66.7 mg/kg/injection, schedule: Q01DX009 (ip), vehicle: water) 116 % of control; (endpoint: median survival time, dose: 100.0 mg/kg/injection, schedule: Q01DX009 (ip), vehicle: water) 93 % of control.
As to `O=C1C=C(c2ccc(O)cc2)CO1`, the T/C by setting is: under setting [4], 97 % of control; under setting [5], 94 % of control; under setting [6], 97 % of control.
In the case of `CCOC(=O)c1ccc(OC(=O)Nc2cc(OC)ccc2OC)cc1`, the T/C by setting is: under setting [1], 93 % of control; under setting [2], 92 % of control.
Take `O=C(CCc1ccc(S(=O)(=O)F)cc1)Nc1cccc(-c2nc3nc[nH]c(=O)c3[nH]2)c1`: the T/C is, setting by setting: (endpoint: mean survival time, dose: 50.0 mg/kg/injection, schedule: Q01DX001 (ip), vehicle: saline with Tween-80) 94 % of control; (endpoint: mean survival time, dose: 100.0 mg/kg/injection, schedule: Q01DX001 (ip), vehicle: saline with Tween-80) 94 % of control; (endpoint: mean survival time, dose: 200.0 mg/kg/injection, schedule: Q01DX001 (ip), vehicle: saline with Tween-80) 90 % of control.
As for `Cc1ccnc(OCCCCCNCCS)c1`, the T/C is 98 % of control under setting [7] and 98 % of control under setting [8].
As to `CCC[CH2][Sn]1([CH2]CCC)[O]OC(c2ccc(C(=O)OCC)cc2)[O]1` (configuration not stated), the T/C is, setting by setting: (endpoint: mean survival time, dose: 1.56 mg/kg/injection, schedule: Q04DX002 (ip), vehicle: other) 101 % of control; (endpoint: mean survival time, dose: 3.13 mg/kg/injection, schedule: Q04DX002 (ip), vehicle: other) 116 % of control.
For `COc1ccc(CCNc2ccc(OC)c(OC)c2)cc1OC`, the T/C runs as follows: under setting [9], 100 % of control; under setting [10], 96 % of control; under setting [11], 100 % of control; under setting [12], 96 % of control; under setting [13], 91 % of control.

Values taken from PubChem BioAssay AID256 (DTP/NCI, 2004).
